Where two headings read alike, the source gives them in different places.
Assays:
human sEH = biological target: T1, human sEH (Homo sapiens, UniProt P34913); test: Inhibition of recombinant human sEH, IC50 assay with 4-nitrophenyl-trans-2,3-epoxy-3-phenylpropyl carbonate as substrate; format: biochemical; settings: for IC90: 0.24 μM enzyme
T1 construct: made in house; host or cells: baculovirus expression system
T1 sequence (P34913 1-555): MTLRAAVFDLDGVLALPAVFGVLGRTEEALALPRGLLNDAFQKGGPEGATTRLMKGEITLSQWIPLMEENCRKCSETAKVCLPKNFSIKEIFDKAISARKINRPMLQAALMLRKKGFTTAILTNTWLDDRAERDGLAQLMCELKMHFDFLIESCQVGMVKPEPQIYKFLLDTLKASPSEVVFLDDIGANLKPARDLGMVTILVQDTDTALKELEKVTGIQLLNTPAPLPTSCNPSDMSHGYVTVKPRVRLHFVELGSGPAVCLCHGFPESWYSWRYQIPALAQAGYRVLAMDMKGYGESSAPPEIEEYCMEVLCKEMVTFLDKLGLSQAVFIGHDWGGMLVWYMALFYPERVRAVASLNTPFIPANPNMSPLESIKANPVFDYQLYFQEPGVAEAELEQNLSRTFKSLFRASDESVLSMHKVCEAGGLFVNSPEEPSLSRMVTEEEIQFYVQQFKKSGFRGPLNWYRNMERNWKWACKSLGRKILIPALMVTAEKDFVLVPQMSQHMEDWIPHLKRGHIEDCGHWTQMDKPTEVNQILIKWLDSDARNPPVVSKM
Procedure: (§1) Assays were performed in triplicate. […] The curve was generated from at least three separate runs, each in triplicate, to obtain the standard deviation (SD) given in Table 1 thru Table 4.

mouse sEH = biological target: T2, mouse sEH (Mus musculus, UniProt P34914); test: Inhibition of recombinant mouse sEH, IC50 assay with 4-nitrophenyl-trans-2,3-epoxy-3-phenylpropyl carbonate as substrate; format: biochemical; settings: for IC90: 0.12 μM enzyme
T2 construct: made in house; host or cells: baculovirus expression system
T2 sequence (P34914 1-554): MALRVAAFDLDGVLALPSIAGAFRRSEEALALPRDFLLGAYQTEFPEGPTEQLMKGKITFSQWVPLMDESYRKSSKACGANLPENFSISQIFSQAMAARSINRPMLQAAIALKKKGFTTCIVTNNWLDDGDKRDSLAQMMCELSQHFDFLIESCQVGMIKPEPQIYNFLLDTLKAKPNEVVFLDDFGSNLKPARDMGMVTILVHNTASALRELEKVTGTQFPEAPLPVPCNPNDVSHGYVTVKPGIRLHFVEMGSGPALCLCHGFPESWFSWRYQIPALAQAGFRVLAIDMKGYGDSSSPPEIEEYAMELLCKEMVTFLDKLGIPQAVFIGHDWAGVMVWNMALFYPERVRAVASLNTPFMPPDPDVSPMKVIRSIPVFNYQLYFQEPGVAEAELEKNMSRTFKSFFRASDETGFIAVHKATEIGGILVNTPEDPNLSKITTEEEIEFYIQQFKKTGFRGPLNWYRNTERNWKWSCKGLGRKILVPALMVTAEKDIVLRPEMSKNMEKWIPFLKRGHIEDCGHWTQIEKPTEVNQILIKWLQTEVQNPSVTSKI
Procedure: as §1

[1] = Tables 17a and b, read-out: IC50 (μM) Human sEH
[2] = Tables 17a and b, read-out: IC50 (μM) Mouse sEH
[3] = Table 9, established protocols, read-out: IC50 (μM) Mouse sEH
[4] = Table 5, 5 min preincubation, pH 7.4, 30° C., means ± SD
[5] = Table 5, […] enzyme, 5 min preincubation, pH 7.4, 30° C., means ± SD, read-out: Human sEH IC50
[6] = Table 5, […] enzyme, 5 min preincubation, pH 7.4, 30° C., means ± SD, read-out: Mouse sEH IC50
[7] = Table 7, established protocols, read-out: IC50 (μM) Human sEH
[8] = Table 7, established protocols, read-out: IC50 (μM) Mouse sEH

Structure (SMILES)	IC50 (human sEH; [1])	IC50 (mouse sEH; [2])	further results
CCCCCCCCCCNC(=O)NC1CCCCC1 [Compound 791, reference compound]			IC50 (human sEH; Table 2, […] enzyme, 5 min preincubation, pH 7.4, 30° C., means ± SD, read-out: IC50 (μM) Human sEH): 0.14 ± 0.01 µM; IC50 (mouse sEH; Table 2, […] enzyme, 5 min preincubation, pH 7.4, 30° C., means ± SD, read-out: IC50 (μM) Mouse sEH): 0.05 ± 0.01 µM
CCCCC1COC(Nc2cccc(Cl)c2)=N1 (centres unmarked) [Compound 980]	60 ± 0.01 µM	49 ± 0.01 µM	
CCCCCOC(=O)CCCCC(=O)Nc1cccc(Cl)c1 [Compound 987]	5.9 ± 0.01 µM	1.7 ± 0.01 µM	
N#CC(OC(=O)CCCNC(=O)NC12CC3CC(CC(C3)C1)C2)c1ccccc1 (centres unmarked) [Compound 946]	0.15 ± 0.01 µM	0.05 ± 0.01 µM	
CCCCCOC(=O)CCCNC(=O)Cc1cccc(Cl)c1 [Compound 988]	5 ± 0.01 µM	2.9 ± 0.01 µM	
CCOC(=O)c1ccc(C(C#N)OC(=O)C2CCCC(NC(=O)NC34CC5CC(CC(C5)C3)C4)C2)cc1 (centres unmarked) [Compound 1014]			IC50 (human sEH; Table 9, established protocols, read-out: IC50 (μM) Human sEH): 0.14 ± 0.01 µM; IC50 (mouse sEH; [3]): 0.05 ± 0.01 µM
COc1ccc(NC(=O)CC2CCCCC2)cc1 [Compound 965]		0.15 ± 0.01 µM	IC50 (human sEH): 6 ± 0.01 µM
CCOC(=O)CCCCCCCCCCOC(=O)CCCNC(=O)NC12CC3CC(CC(C3)C1)C2 [Compound 881]			IC90 (human sEH; [4]): 1200 ± 100 nM; IC50 (human sEH; [5]): 0.1 ± 0.01 µM; IC90 (mouse sEH; [4]): 350 ± 50 nM; IC50 (mouse sEH; [6]): 0.05 ± 0.01 µM
CCOC(=O)CCCCCCCCCOC(=O)CCCNC(=O)NC12CC3CC(CC(C3)C1)C2 [Compound 880]			IC90 (human sEH; [4]): 680 ± 10 nM; IC50 (human sEH; [5]): 0.1 ± 0.01 µM; IC90 (mouse sEH; [4]): 260 ± 30 nM; IC50 (mouse sEH; [6]): 0.05 ± 0.01 µM
O=C(NCCCCCOCCOCCOCc1ccccc1)NC12CC3CC(CC(C3)C1)C2 [Compound 951]			IC50 (human sEH; [7]): 0.1 ± 0.01 µM; IC50 (mouse sEH; [8]): 0.05 ± 0.01 µM
CCCCCCCCCCNC(=O)CC12CC3CC(CC(C3)C1)C2 [Compound 1018]			IC50 (human sEH; Table 8, established protocols, read-out: IC50 (μM) Human sEH): 0.1 ± 0.01 µM; IC50 (mouse sEH; Table 8, established protocols, read-out: IC50 (μM) Mouse sEH): 0.05 ± 0.01 µM
O=C(NCCCC(=O)OCc1ccccc1)NC12CC3CC(CC(C3)C1)C2 [Compound 945]	0.19 ± 0.01 µM	0.05 ± 0.01 µM	
O=C(NC12CC3CC(CC(C3)C1)C2)C(F)(F)C(F)(F)C(F)(F)C(F)(F)C(F)(F)C(F)(F)C(F)(F)C(F)(F)C(F)(F)C(F)(F)C(F)(F)F [Compound 903]	0.01 ± 0.01 µM	0.1 ± 0.01 µM	
CCOC(=O)CCCCCCCOC(=O)CCCNC(=O)NC12CC3CC(CC(C3)C1)C2 [Compound 879]			IC90 (human sEH; [4]): 720 ± 10 nM; IC50 (human sEH; [5]): 0.11 ± 0.01 µM; IC90 (mouse sEH; [4]): 160 ± 20 nM; IC50 (mouse sEH; [6]): 0.05 ± 0.01 µM
CCCCC(C#N)OC(=O)CCCNC(=O)NC12CC3CC(CC(C3)C1)C2 (centres unmarked) [Compound 944]		0.05 ± 0.01 µM	IC50 (human sEH): 0.2 ± 0.01 µM
CCCCCOC(=O)C1CCCC(NC(=O)NC23CC4CC(CC(C4)C2)C3)C1 (centres unmarked) [Compound 861]			IC50 (human sEH; read-out: IC50 (μM) Human sEH): 0.1 ± 0.01 µM; IC50 (mouse sEH; [3]): 0.05 ± 0.01 µM
O=C(NCCCN1CCOCC1)NC12CC3CC(CC(C3)C1)C2 [Compound 1016]	6 ± 0.01 µM	0.05 ± 0.01 µM	
CN(C)c1cccc2c(S(=O)(=O)NCCNC(=O)NC34CC5CC(CC(C5)C3)C4)cccc12 [Compound 907]	0.6 ± 0.01 µM	0.4 ± 0.01 µM	
CC(=O)Nc1ccc(CC(=O)NC23CC4CC(CC(C4)C2)C3)cc1 [Compound 912]	35 ± 0.01 µM	4.1 ± 0.01 µM	

Second part, led by results:

IC50 (human sEH; [1])	IC50 (mouse sEH; [2])	Structure (SMILES)	further results
0.24 ± 0.01 µM	0.05 ± 0.01 µM	CCCCCCCCC(NC(=O)CCCCCCCCCCCNC(=O)NC12CC3CC(CC(C3)C1)C2)C(=O)O (centres unmarked) [Compound 1001]	
4.8 ± 0.01 µM	1.4 ± 0.01 µM	COc1ccc(CC(=O)NC2CCCCC2)cc1 [Compound 970]	
0.1 ± 0.01 µM	0.05 ± 0.01 µM	CCCCC(O)CCCCNC(=O)NC12CC3CC(CC(C3)C1)C2 (centres unmarked) [Compound 994]	
63 ± 0.01 µM	2.3 ± 0.01 µM	O=C(NCCCCCCCCCCCn1ccnc1)NC12CC3CC(CC(C3)C1)C2 [Compound 997]	
0.11 ± 0.01 µM	0.05 ± 0.01 µM	CCOC(=O)CCCCCCOCCCCCNC(=O)NC12CC3CC(CC(C3)C1)C2 [Compound 1006]	IC50 (human sEH; [7]): 0.11 ± 0.01 µM; IC50 (mouse sEH; [8]): 0.05 ± 0.01 µM
